# “Also recorded” adds a separate entry of the source. Like-named read-outs stand apart in the source and are kept apart here.
# Key:
# [1] = biological target: T1, calcium receptor expressed from bovine parathyroid cell mRNA in Xenopus oocytes (Bos taurus, UniProt P35384); assay: Cl- current in Xenopus oocytes injected with bovine parathyroid mRNA; type: cell-based; details: for oscillatory increases in Cl- current (words): bovine parathyroid mRNA
# T1 sequence (P35384 20-1085): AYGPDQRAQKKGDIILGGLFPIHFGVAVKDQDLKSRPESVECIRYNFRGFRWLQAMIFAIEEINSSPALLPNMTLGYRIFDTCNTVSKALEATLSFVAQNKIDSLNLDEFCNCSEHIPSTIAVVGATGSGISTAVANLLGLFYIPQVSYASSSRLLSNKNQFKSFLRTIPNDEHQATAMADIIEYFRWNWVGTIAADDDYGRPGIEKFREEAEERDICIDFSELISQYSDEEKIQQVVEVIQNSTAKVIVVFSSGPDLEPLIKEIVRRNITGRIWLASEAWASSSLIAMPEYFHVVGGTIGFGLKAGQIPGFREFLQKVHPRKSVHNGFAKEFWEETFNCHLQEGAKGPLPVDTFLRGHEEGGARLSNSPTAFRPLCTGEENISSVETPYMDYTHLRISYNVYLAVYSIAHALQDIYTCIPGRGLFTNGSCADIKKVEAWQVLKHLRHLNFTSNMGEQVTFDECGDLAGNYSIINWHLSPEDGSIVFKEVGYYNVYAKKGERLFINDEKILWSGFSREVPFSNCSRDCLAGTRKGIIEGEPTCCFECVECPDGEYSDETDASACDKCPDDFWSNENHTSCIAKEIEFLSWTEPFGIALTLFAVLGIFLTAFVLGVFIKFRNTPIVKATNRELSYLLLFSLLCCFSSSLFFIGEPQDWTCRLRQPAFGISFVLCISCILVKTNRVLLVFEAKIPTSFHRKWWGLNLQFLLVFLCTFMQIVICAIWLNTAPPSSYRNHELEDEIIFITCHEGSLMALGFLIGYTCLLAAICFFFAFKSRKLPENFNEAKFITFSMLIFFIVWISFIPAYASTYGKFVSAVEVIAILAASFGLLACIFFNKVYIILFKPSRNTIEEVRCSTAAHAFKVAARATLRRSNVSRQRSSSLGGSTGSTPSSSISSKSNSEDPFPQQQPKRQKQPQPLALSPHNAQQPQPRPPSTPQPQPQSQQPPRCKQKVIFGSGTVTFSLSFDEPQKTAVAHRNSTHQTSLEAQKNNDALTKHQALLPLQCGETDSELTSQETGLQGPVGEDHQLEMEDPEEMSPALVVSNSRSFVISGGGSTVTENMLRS
# Method: (§1) Glass capillary tubes (1 mm diameter) were pulled to a fine tip and manually broken to achieve a tip diameter of about 15 μmeters. A droplet of mRNA (1 ng/nl in diethylpyrocarbonate (DEPC)-treated water) was placed onto […]® and drawn into the capillary tube by suction. The capillary tube was then connected to a picospritzer (WPI Instruments) and the volume of the air-pulsed droplets adjusted to deliver 50 ng of mRNA (typically 50 nl). A 35-mm culture dish with a patch of nylon stocking fixed to the bottom was used to secure the oocytes during injection of mRNA into the vegetal pole. The injected oocytes were placed into a 35-mm culture dish containing MBS, 100 μg/ml penicillin and 100 μg/ml streptomycin and incubated at 18° C. for 3 days.
# (§2) Following incubation, an oocyte was placed into a 100-μl plastic chamber and superfused with MBS at a flow rate of 0.5 ml/min using a peristaltic pump. Test molecules or inorganic polycations were added by rapidly moving the tubing into different buffers. Recording and current-passing electrodes were constructed from thin-wall capillary tubing pulled to a resistance of 1-3 Mohms and filled with 3M KCl. […] Currents were recorded directly onto a strip chart recorder.
# [2] = tested on: osteoclast calcium receptor; assay: increase in [Ca2+]i in indo-1-loaded rat osteoclasts; type: cell-based
# C-cell calcium receptor = biological target: T2, C-cell calcium receptor (Rattus norvegicus, UniProt P48442); type: cell-based; set-up: Neoplastic C-cells derived from a rat medullary thyroid carcinoma (rMTC 6-23); host or cells: rMTC 6-23; details: rMTC 6-23 cells, fura-2; inactive = no increase in cytosolic Ca2+ at 1-5 mM
# T2 sequence (P48442 20-1079): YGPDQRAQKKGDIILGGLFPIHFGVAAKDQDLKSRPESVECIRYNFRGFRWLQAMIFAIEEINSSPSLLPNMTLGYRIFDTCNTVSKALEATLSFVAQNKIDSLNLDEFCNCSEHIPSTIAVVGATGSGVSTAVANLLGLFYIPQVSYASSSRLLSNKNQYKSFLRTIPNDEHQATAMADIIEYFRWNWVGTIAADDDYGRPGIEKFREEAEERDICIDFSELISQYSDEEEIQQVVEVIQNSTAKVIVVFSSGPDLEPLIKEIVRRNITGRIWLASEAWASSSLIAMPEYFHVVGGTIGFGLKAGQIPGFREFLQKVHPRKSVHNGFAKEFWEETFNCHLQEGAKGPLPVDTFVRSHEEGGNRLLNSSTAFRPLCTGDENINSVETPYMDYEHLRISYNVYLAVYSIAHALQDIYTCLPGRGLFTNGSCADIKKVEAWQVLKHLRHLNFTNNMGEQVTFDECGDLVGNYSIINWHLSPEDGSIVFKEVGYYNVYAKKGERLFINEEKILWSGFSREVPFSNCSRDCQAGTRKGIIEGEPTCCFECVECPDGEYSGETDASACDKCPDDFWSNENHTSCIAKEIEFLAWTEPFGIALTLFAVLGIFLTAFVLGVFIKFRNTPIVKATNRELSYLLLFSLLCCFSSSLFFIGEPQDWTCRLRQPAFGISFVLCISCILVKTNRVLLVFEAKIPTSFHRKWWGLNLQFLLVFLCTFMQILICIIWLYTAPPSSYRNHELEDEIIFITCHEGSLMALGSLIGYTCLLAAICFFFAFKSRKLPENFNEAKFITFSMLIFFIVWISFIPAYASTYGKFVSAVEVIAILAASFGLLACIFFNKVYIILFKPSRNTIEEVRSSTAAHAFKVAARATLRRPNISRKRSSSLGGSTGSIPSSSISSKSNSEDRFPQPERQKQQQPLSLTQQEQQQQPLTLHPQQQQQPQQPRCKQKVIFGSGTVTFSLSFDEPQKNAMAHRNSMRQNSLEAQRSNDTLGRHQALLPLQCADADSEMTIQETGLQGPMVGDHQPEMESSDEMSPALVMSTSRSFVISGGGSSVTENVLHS
# Text: To assess the effects of molecular polycations on C-cells, a neoplastic cell line, derived from a rat medullary thyroid carcinoma (rMTC 6-23 cells) was used.
# net positive charge = type: physicochemical
# [3] = tested on: increases in [Ca2+]i elicited by extracellular Ca2+ in bovine parathyroid cells; assay: block of extracellular Ca2+-induced [Ca2+]i increase / Ca2+ influx in bovine parathyroid cells; type: cell-based
# Method: (§3) The cells were then pelleted, resuspended in the same buffer, but lacking the ester, and incubated a further 15 minutes at 37° C. The cells were subsequently washed twice with PCB containing 0.5 mM CaCl2 and 0.5% BSA and maintained at room temperature (about 20° C.). Immediately before use, the cells were diluted five-fold with prewarmed 0.5 mM CaCl2 -PCB to obtain a final BSA concentration of 0.1%. The concentration of cells in the cuvette used for fluorescence recording was 1-2×10^6 /ml.
# (§4) The fluorescence of indicator-loaded cells was measured at 37° C. in a spectrofluorimeter (Biomedical Instrumentation Group, University of Pennsylvania, Philadelphia, Pa.) equipped with a thermostated cuvette holder and magnetic stirrer using excitation and emission wavelengths of 340 and 510 nm, respectively. […] Leakage of dye is dependent on temperature and most occurs within the first 2 minutes after warming the cells in the cuvette. Dye leakage increases only very slowly thereafter. To correct the calibration for dye leakage, cells were placed in the cuvette and stirred at 37° C. for 2-3 minutes. The cell suspension was then removed, the cells pelleted, and the supernatant returned to a clean cuvette. […] This estimate was subtracted from the apparent Fmin.
# [4] = biological target: T3, calcium receptor expressed from human parathyroid cell mRNA in Xenopus oocytes (Homo sapiens, UniProt P41180); assay: response of Xenopus oocytes injected with human parathyroid mRNA; type: cell-based; details: human parathyroid mRNA
# T3 sequence (P41180 20-1078): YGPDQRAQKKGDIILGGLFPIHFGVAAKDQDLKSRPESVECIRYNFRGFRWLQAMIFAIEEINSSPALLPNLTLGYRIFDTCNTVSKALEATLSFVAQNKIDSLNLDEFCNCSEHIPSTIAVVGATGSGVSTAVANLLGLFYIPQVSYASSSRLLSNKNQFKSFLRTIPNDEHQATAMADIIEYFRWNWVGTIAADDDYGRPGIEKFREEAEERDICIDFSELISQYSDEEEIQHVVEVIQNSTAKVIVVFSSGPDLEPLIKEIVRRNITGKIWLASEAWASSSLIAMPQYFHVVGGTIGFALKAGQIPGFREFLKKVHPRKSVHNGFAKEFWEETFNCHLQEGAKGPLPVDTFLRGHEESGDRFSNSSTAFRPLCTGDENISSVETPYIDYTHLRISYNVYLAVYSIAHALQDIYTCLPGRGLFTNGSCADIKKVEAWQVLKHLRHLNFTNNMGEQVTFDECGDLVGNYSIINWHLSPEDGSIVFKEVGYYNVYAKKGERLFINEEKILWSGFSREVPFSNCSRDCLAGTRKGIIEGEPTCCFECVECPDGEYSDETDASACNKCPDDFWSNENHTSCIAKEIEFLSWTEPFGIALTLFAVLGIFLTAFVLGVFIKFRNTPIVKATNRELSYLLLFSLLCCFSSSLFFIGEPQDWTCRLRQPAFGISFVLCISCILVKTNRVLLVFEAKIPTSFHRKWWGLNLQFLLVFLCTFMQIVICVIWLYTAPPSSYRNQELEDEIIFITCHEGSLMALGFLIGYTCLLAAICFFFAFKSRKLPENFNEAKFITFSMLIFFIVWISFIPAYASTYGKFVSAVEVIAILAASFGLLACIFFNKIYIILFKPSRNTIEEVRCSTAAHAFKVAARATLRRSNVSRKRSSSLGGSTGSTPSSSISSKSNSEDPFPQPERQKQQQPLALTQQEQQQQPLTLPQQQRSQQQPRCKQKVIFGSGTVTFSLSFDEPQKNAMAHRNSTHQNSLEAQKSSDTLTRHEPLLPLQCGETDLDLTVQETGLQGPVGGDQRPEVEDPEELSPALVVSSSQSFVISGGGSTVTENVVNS
# Method: Oocytes were injected with poly(A)^+ -enriched mRNA from human parathyroid tissue (hyperplastic glands from a case of secondary HPT).
# as §1, §2
# Using this screen allows one to test for an action directly on the calcium receptor. Oocytes expressing the calcium receptor also responded to several molecules active on intact parathyroid cells when screened as follows. […] This offers rather compelling evidence showing that these molecules act on the calcium receptor or on some other protein intimately associated with its function.
# [5] = tested on: parathyroid cell calcium receptor; type: cell-based; details: for EC50: screened as in Example 1
# [6] = biological target: T4, bovine parathyroid cell calcium receptor (BoPCaR 1) (Bos taurus, UniProt P35384); assay: Cl- current in Xenopus oocytes expressing BoPCaR 1; type: cell-based; details: 1 mM extracellular Ca2+
# T4 construct: Xenopus oocytes were injected with BoPCaR 1, the 5.3 Kb cDNA encoding a bovine parathyroid cell calcium receptor; expressed in transfected cells; host or cells: Xenopus laevis oocytes injected with cRNA/cDNA of BoPCaR 1
# T4 sequence (P35384 20-1085): T1 sequence (P35384 20-1085)
# Method: as §2
# The techniques used to clone the parathyroid calcium receptor are briefly described in this example; a more complete description of the techniques is provided in preceding sections, which describe techniques which may be used to clone additional forms of the Ca^2+ -receptor from other cell types. Poly(A^+)-enriched mRNA was initially prepared from bovine parathyroid glands by extracting with guanidinium thiocyanate, centrifugation through CsCl and oligo(dT) cellulose chromatography. […] No such currents were elicited in control eggs injected with water.
# These responses are mediated by the following series of biochemical events:
# Xenopus oocytes were injected with BoPCaR 1, the 5.3 Kb cDNA encoding a bovine parathyroid cell calcium receptor as described in Example 25. After two to three days, Cl^- currents were examined in the oocytes using a two-electrode voltage clamp.
# Xenopus oocytes were injected with BoPCaR 1 as described in Example 25. After two to three days, Cl^- currents were examined in the oocytes using two electrode voltage clamp.
# [7] = tested on: PTH secretion from bovine parathyroid cells; assay: PTH secretion from bovine parathyroid cells; type: cell-based; details: bovine parathyroid cells
# Method: PTH secretion was measured by first suspending cells in PCB containing 0.5 mM CaCl2 and 0.1% BSA.
# [8] = biological target: T5, human parathyroid cells (calcium receptor) (Homo sapiens, UniProt P41180); type: cell-based; details: 1 μM
# T5 sequence (P41180 20-1078): T3 sequence (P41180 20-1078)
# Method: Human parathyroid glands, were obtained from patients undergoing surgical removal of parathyroid tissue for primary or uremic hyperparathyroidism (uremic HPT), and were treated similarly to bovine tissue.
# as §3, §4
structure (smiles),measurement,setting,value
"CC(NCCC(c1ccccc1)c1ccccc1)c1ccccc1 (racemic) [Fendiline, diphenylpropyl-α-phenethylamine]",concentration eliciting oscillatory increases in Cl- current,[1],100 µM
same,oscillatory increases in Cl- current (words),[1],evokes the mobilization of intracellular
same,oscillatory increases in Cl- current (words),[1]; listed as fendiline,evokes oscillatory increases
same,EC50,"[2]; rat osteoclasts, indo-1, inactive = no increase in cytosolic Ca2+ at 1-5 mM, read-out: EC50 OSTEOCLAST (Table 6)",200 µM
same,EC50,C-cell calcium receptor,> 100 µM
"NCCCCCCCCCCCCN [1,12-diaminododecane (DADD), 1,12-diaminododecane]",Net (+) Charge (Table 1),net positive charge,+2
same,effect of pretreatment on increases in [Ca2+]i elicited by extracellular Ca2+,[3]; 100 to 1000 μM,"depresses steady-state, but not transient increases"
same,fall in [Ca2+]i,"[3]; 100 to 1000 μM, buffer containing 2 mM CaCl2",prompt fall
"C1CNCCNCCNCCNCCNCCN1 [Hexacyclen, 1,4,7,10,13,16-hexaaza-cyclooctadecane]",concentration effective in oocytes,[4],135 µM
same,Net (+) Charge (Table 1),net positive charge,+6
same,relative potency (fold),[5]; hexacyclen vs NPS 383,7 fold
same,relative potency (fold),[5]; hexacyclen vs […],25 fold
same,EC50,"[5]; parathyroid cells, read-out: EC50 (Table 1)",20 µM
NCCCNCCCCNCCCNCCCN(O)CCCNC(=O)Cc1c[nH]c2cccc(O)c12 [NPS 015],EC50 C-CELL (Table 6),C-cell calcium receptor,inactive
NCCCNCCCCNCCCNCCCN(O)CCCNC(=O)Cc1c[nH]c2ccccc12 [NPS 017],EC50 OSTEOCLAST (Table 6),"[2]; rat osteoclasts, indo-1, inactive = no increase in cytosolic Ca2+ at 1-5 mM",inactive
same,Cl- current,[6],oscillatory increases
CC(Cc1ccccc1)NCCC(c1ccccc1)c1ccccc1 (centres unmarked) [Prenylamine],increase in [Ca2+]i (words),[2]; rat osteoclasts,mobilization
"NCCCCNCCCN [Spermidine, spermidine]","increase in [Ca2+]i in osteoclasts, overall",[2],none of these caused any large increase
same,Net (+) Charge (Table 1),net positive charge,+3
same,EC50,[5]; read-out: EC50 (Table 3),2000 µM
"NCCCNCCCCNCCCN [Spermine, spermine]",inhibition of PTH secretion,[7],inhibits PTH secretion; also recorded: inhibited PTH secretion to the same extent
CCN(CC)CCCCCCCCOC(=O)c1cc(OC)c(OC)c(OC)c1 [TMB-8],block of influx of extracellular Ca2+,[3]; 100 μM,blocked the influx of extracellular
same,potentiation of mobilization of intracellular Ca2+ elicited by extracellular divalent cations,[5]; 100 μM,potentiated the mobilization of intracellular; also recorded: potentiated transient increases
same,change in [Ca2+]i,"[5]; 100 μM, 0.5 mM extracellular Ca2+",evoked no change
same,increase in [Ca2+]i at intermediate extracellular Ca2+,"[5]; 100 μM, 1-[…] extracellular Ca2+","small, but robust increase"
COCCOC(=O)C1=C(C)NC(C)=C(C(=O)OC(C)C)C1c1cccc([N+](=O)[O-])c1 (centres unmarked) [nimodipine],effect on Mg2+-elicited sustained [Ca2+]i increase,[8],not affected

# Source: patent US5858684A, “Method of screening calcium receptor-active molecules” (priority 1995, dated 1999)
